# Results taken from a melting point compilation (Tetko et al.; mined from patent text by program, amines drawn as free bases though some values may be those of a salt).
row,Structure (SMILES),melting point [°C]
1,O=Cn1cc(Cl)c(-c2cccc(Cl)c2[N+](=O)[O-])c1,138
2,O=C1C=CC(=O)N1c1cccc(Oc2cccc(Oc3cccc(N4C(=O)C=CC4=O)c3)c2)c1,138 to 140
3,Cc1cc(C)nc(NC(=S)NS(=O)(=O)c2ccccc2-c2ccccc2)n1,203 to 204
4,Clc1ccc(C(c2ccccc2)c2c(Cl)ncnc2Cl)c(Cl)c1 (centres undefined),138 to 139
5,Cc1cccc(-c2[nH]c(C(C)C)nc2-c2cccc(-c3ccc(N)cc3)c2)n1,107 to 117
6,Cc1cccc(NC(=O)NC2N=C(C3CCCCC3)c3ccccc3N(CC(=O)N3CC4CCC(CC4)C3)C2=O)c1 (racemic),133 to 135
7,CCOC(=O)c1cc(-c2ccc(Cl)cc2)n(-c2ccc(OC)cc2)n1,107 to 108
8,CC1CN(c2c(Cl)nc3ccc(F)cc3c2C(N)=O)CC(C)N1 (centres undefined),169 to 170
9,O=C1OCc2c1nc1ccc3c(c1c2-c1ccc2c(c1)OCO2)OCO3,272 to 274
10,CC1(C)OCC(COc2ccc(Br)cc2C23CC4CC(CC(C4)C2)C3)O1 (centres undefined),91
11,O=C(NCCCc1ccncc1)N(CCCc1ccccc1)C(c1ccccc1)c1ccccc1,123 to 125
12,O=C(NC[C@H]1CN(c2cc(F)c(N3CCC(n4cnnn4)CC3)c(F)c2)C(=O)O1)C1CC1,162 to 164
13,Cc1c(C)c2c(c(C)c1N)CC(C)(CN1CCC(Nc3ccccc3)CC1)O2 (centres undefined),116 to 118
14,O=c1nc(-c2cccc(OCc3ccccc3)n2)sc2ccccc12,241
15,CCCc1cc(Cl)c2oc(Cc3ccccc3)c(C)c2c1O,69 to 70
16,COc1ccc(CC(C)(C)C(=O)O)cc1C(=O)NCc1ccc(C(F)(F)F)cc1,151 to 152
17,CCCC(SCC(=O)O)c1cc2c(cc1C)OCO2 (centres undefined),77.5 to 78
18,CCCNCc1cc2ccc(NC(=O)c3ccc(OC[C@@H]4CCCO4)cc3)c(C)c2[nH]1,117 to 119
19,Sc1nccc(-c2ccccc2)n1,203 to 205
20,COC(=S)c1ccnc(C)n1,68
21,CNc1nc(-c2cccc(NC(=O)c3ccccc3Cl)c2)c2cc(OC)c(OC)cc2n1,197 to 199
22,CCCCCCCNC(=O)Nc1c(C(=O)NC2CCN(C(c3ccccc3)c3ccccc3)CC2)cccc1C(C)C,209 to 212
23,CCOC(=O)C1=C2C(=CC3=C(CCCC3)N2O)SC1C (centres undefined),135 to 136

row,Structure (SMILES),melting point [°C]
1,CC(C)Nc1ncc2cc(-c3c(Cl)cccc3Cl)c(=O)n(C)c2n1,194 to 196
2,O=C(c1cccs1)c1cnn2c(-c3cccc(NC(=O)C4CCCC4)c3)ccnc12,209 to 210
3,Cn1nc(-c2ccc(F)cc2)c(-c2ccncc2)c1CCCc1ccc([N+](=O)[O-])cc1,129 to 132
4,Cc1nc(-c2cc(CCc3ccccc3)no2)sc1C(=O)NCc1ccccc1,114 to 115
5,CCCc1cc(OCc2ccc(-c3ccccc3-c3nnn(C(c4ccccc4)(c4ccccc4)c4ccccc4)n3)cc2)c(C(=O)OC)c(C)n1,61 to 64
6,O=C1CCC(c2ccc(Cl)c([N+](=O)[O-])c2)=NN1,190 to 193
7,CCC1(N2C(=O)c3ccccc3C2=O)C(=O)NC(=O)N(C2CCCCC2)C1=O (centres undefined),248 to 253
8,S=c1n(N=Cc2ccccc2)ccn1N=Cc1ccccc1,215 to 218
9,CNC(=O)c1cc(Br)cc(F)c1Nc1nc(Cl)ncc1Cl,246 to 249
10,CC(=O)OCCn1ccc(=O)c(OCc2ccccc2)c1C(OC(C)=O)c1cccc(F)c1 (centres undefined),148 to 149
11,CC(C)(C)CC(C)(C)c1ccc(N)c([N+](=O)[O-])c1,104 to 107
12,CN(C)C(=O)N(C)C(=O)Nc1ccc(Cl)cc1,94.5 to 95
13,CCOC(=O)Cn1nnnc1Cl,57 to 60
14,O=C1CC2Sc3nc4ccccc4n3C2(c2ccc(Cl)cc2)O1 (centres undefined),115 to 117
15,CCOC(=O)OCCn1nc(-c2cc(C(C)(C)C)c(O)c(C(C)(C)C)c2)c2cccnc21,103 to 105
16,CC(C)n1c(C=O)c(-c2ccc(F)cc2)c(-c2ccccc2)c1C(=O)O,219 to 220
17,COc1ccc(C(=O)NC(=O)Nc2cc3c(cc2F)/C(=C/c2ccc[nH]2)C(=O)N3)cc1,290 to 295
18,COc1cc(F)ccc1-c1ccc(S(=O)(=O)N2c3ccccc3CC2C(=O)NCCOc2ccc(CC(=O)O)cc2)cc1 (centres undefined),102 to 110
19,OC1CCCc2nc3ccccc3c(NCc3ccc(F)cc3)c21 (centres undefined),170
20,CC1=Cc2cc(-c3nnnn3C)ccc2OC1(C)C,127 to 130
21,O=C1CC=CC(C(=O)O)C1 (centres undefined),98 to 101
22,NC(=O)c1ccc(CCN2CC=C(c3c[nH]c(-c4ccc(F)cc4)c3-c3ccncc3)CC2)cc1,202 to 204
23,Cn1ncc2c1CCCc1c-2cnn1C,191 to 195

row,Structure (SMILES),melting point [°C]
1,COc1cc(N2CCC(N3CCCOCC3)CC2)ccc1Nc1ncc2ccc(-c3ccccc3OC)n2n1,75 to 82
2,O=C(NCC1CCC(CNS(=O)(=O)c2ccc3ccccc3c2)CC1)C1CCc2ccccc2C1 (centres undefined),225 to 226
3,CC(C)(C)c1csc(NC(=O)Nc2ccc(N3CCN(C(=O)Nc4ccc(OCCO)cc4C(F)(F)F)CC3)cc2)n1,130 to 132
4,COc1ccc(C2CCN(c3c(C)c(C)c4c(c3C)C(c3ccc(C(C)C)cc3)C(C)(C)O4)CC2)cc1OC (centres undefined),129 to 132
5,C#CCOc1cc(-n2nc(C)c(Cl)c2C)c(Cl)cc1Cl,156 to 158
6,Cc1c(Br)cccc1N1CCn2c(cc3ccccc32)C1=O,178 to 180
7,CCCn1ncnc1COc1nc2c(nnn2-c2ccccc2)c2ccccc12,154 to 156
8,COc1ccc2c(c1)c(OC(C)C)c(C(N)=O)n2C,147 to 149
9,C=CCc1ccccc1OC[C@@H](O)CNCCc1ccc(NC2CCN(C(=O)NCCCCCCCC)CC2)cc1,73 to 80
10,OCCOc1cccc2c1OCO2,56 to 57
11,CCOCc1nc2c(N)nc3ccccc3c2n1CC1(O)CCN(C)CC1,198
12,CCOc1ccc2c(c1)n(CCN1CCOCC1)c(=O)n2S(=O)(=O)c1ccc(OC)cc1OC,146 to 149
13,C=CCOc1ccc2c(C)cc(=O)oc2c1,110
14,COc1ccc2c(c1)C(c1ccccc1)NN=C2Cc1c(Cl)cncc1Cl (centres undefined),175 to 177
15,COC(=O)CNCCNC(=O)c1nc(Cl)c(N)nc1N,145 to 146
16,O=C(O)CCn1ccn(C2CCc3ccccc3C2)c1=S (centres undefined),167 to 168
17,CC(=O)OCC=Cc1ccccc1S(N)(=O)=O,94 to 95
18,CCn1ncc2c3ncn(Cc4ccccc4)c(=O)c3cnc21,198 to 200
19,CN(C)CCCCN1CCOc2cc3ncc(C#N)c(Nc4ccc(F)c(Cl)c4)c3cc21,105
20,O=C(O)C1(CO)CCc2cc(C3CCCCC3)c(Cl)cc21 (centres undefined),195 to 197
21,CCOC(=O)c1ccccc1N(CC(=O)OC(C)(C)C)C(=O)CN1C(=O)c2ccccc2C1=O,127
22,c1ccc(-c2ncc(-c3ncco3)cn2)cc1,175 to 177
23,CCCCC[C@H]1CC[C@H](c2ccc(-c3ccc(C=O)cc3)cc2)CC1,115 to 116
